According to ChEMBL document CHEMBL5325417, “Dual function of protein phosphatase 5 (PPP5C): An emerging therapeutic target for drug discovery” (Eur J Med Chem, 2023):
Changes are numbered by the printed parent chain. Starred links: 1 amine or outer side, 2 acyl side, 3 side chain; linkers in the order of their positions; H or OH if unused. Positions of bridges follow the written chain, without caps; N, C: chain ends. Non-standard residues stand in square brackets, D forms with d. Residues, ends and D or L forms follow the SMILES beside them. Adda = CO[C@@H](Cc1ccccc1)[C@@H](C)/C=C(C)/C=C/[C@H](N[*:1])[C@H](C)C(=O)[*:2]; dAsp(3S-Me) = C[C@H](C(=O)[*:3])[C@@H](N[*:1])C(=O)[*:2]; d(γGlu) = O=C(O)[C@@H](CCC(=O)[*:2])N[*:1]; NMeDha = C=C(NC)C(=O)O

Legend:
[1] = biological target: T1, Serine/threonine-protein phosphatase 5 (Homo sapiens, UniProt P53041); assay: Activation of PPP5C (unknown origin) TPR domain
T1 sequence (P53041 whole entry): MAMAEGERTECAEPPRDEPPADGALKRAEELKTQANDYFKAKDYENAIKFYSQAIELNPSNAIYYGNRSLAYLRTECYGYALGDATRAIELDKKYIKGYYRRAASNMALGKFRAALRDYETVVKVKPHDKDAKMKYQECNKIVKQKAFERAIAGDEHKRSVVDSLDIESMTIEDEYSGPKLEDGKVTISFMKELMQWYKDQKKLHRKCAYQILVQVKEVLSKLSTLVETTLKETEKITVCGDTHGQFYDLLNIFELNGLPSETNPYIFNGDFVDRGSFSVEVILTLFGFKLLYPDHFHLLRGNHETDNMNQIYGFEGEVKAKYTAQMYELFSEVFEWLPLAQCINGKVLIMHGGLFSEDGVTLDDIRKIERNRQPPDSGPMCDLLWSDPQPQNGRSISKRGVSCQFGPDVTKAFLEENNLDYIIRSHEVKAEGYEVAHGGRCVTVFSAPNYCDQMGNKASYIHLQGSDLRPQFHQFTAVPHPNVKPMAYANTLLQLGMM

[2] = biological target: T1, Serine/threonine-protein phosphatase 5; assay: Inhibition of MBP fused recombinant human PPP5C phosphatase domain expressed in Escherichia coli using DiFMUP as substrate
[3] = Inhibition of PP1 (unknown origin) phosphatase domain; design: species or system Homo sapiens
[4] = Inhibition of bovine blood PP2A phosphatase domain expressed in Escherichia coli using DiFMUP as substrate; format: tissue-based, Bos taurus
[5] = biological target: T2, Serine/threonine-protein phosphatase 5 (Homo sapiens) (UniProt P53041); assay: Inhibition of N-terminally 6His-tagged full-length human PPP5C (1 to 499 residues) TPR domain expressed in Escherichia coli Rosetta gami2 (de3) pLysS cells using pNPP as substrate at 10^6 nM preincubated for 10 mins followed by substrate addition and measured for 60 mins relative to control; details: dose 1.0 10^6nM, time 70.0 min
T2 sequence (whole entry): T1 sequence (P53041 whole entry)

[6] = biological target: T3, Serine/threonine-protein phosphatase 5 (Rattus norvegicus) (UniProt P53042); assay: Activation of rat PPP5C (428 to 430 residues) phosphatase domain expressed in Escherichia coli BL21-codonplus (DE3)-RIL cells using para-nitrophenyl phosphate as substrate assessed as fold change in maximum efficacy at 10^5 nM; details: filed as activator, dose 1.0 10^5nM
T3 sequence (whole entry): T1 sequence (P53041 whole entry) with D22E, A24T, H128N, N140S, K158R, S189T, E193D, S221C, I397V, N419Q

[7] = biological target: T4, Serine/threonine-protein phosphatase 5 (Rattus norvegicus, UniProt P53042); assay: Binding affinity to rat PPP5C (428 to 430 residues) phosphatase domain expressed in Escherichia coli BL21-codonplus (DE3)-RIL cells using para-nitrophenyl phosphate as substrate assessed as dissociation constant at 10^5 nM
T4 sequence (P53042 whole entry): T1 sequence (P53041 whole entry) with D22E, A24T, H128N, N140S, K158R, S189T, E193D, S221C, I397V, N419Q

[8] = biological target: T3, Serine/threonine-protein phosphatase 5 (Rattus norvegicus); assay: Activation of rat PPP5C (428 to 430 residues) phosphatase domain expressed in Escherichia coli BL21-codonplus (DE3)-RIL cells using para-nitrophenyl phosphate as substrate assessed as fold increase at 10^5 nM; details: filed as activator, dose 1.0 10^5nM
[9] = biological target: T5, Serine/threonine-protein phosphatase 4 catalytic subunit (Homo sapiens, UniProt P60510); assay: Inhibition of PP4 (unknown origin) phosphatase domain
T5 sequence (P60510 whole entry): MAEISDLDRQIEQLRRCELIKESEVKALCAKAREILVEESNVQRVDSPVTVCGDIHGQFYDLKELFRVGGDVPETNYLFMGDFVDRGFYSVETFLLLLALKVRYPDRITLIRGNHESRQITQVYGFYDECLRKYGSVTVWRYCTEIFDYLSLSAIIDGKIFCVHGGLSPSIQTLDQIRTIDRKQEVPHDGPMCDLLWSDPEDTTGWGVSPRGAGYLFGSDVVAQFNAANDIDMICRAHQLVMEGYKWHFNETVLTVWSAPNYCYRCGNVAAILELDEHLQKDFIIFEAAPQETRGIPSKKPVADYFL

[10] = biological target: T1, Serine/threonine-protein phosphatase 5; assay: Inhibition of PPP5C (unknown origin) phosphatase domain
[11] = Inhibition of PP2A (unknown origin) phosphatase domain; design: species or system Homo sapiens
[12] = biological target: T6, Serine/threonine-protein phosphatase with EF-hands 1 (Homo sapiens, UniProt O14829); assay: Inhibition of PP7 (unknown origin) phosphatase domain
T6 sequence (O14829 whole entry): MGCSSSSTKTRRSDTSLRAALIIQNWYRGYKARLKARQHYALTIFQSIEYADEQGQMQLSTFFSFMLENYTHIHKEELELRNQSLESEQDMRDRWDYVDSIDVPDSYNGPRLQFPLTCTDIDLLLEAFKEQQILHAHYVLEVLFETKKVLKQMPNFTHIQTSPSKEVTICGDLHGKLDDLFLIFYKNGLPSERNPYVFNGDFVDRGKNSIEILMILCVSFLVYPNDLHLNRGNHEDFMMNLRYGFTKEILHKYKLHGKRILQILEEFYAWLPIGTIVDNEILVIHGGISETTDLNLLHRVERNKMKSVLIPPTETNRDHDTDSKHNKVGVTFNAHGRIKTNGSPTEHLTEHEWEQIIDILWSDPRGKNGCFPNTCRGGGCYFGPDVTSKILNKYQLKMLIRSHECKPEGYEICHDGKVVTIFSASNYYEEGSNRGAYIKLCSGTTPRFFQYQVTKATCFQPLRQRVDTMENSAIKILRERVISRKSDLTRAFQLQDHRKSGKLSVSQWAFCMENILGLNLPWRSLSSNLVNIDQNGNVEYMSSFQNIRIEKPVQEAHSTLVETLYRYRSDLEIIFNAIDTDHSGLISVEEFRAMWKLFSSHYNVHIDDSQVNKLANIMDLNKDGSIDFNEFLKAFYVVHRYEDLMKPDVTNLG

[13] = Inhibition of PP3 (unknown origin) phosphatase domain; design: species or system Homo sapiens
[14] = Inhibition of PP6 (unknown origin) phosphatase domain; design: species or system Homo sapiens
[15] = biological target: T2, Serine/threonine-protein phosphatase 5 (Homo sapiens); assay: Activation of Histidine-tagged human PPP5C TPR domain assessed as fold change at 10^5 nM; details: filed as activator, dose 1.0 10^5nM
[16] = Inhibition of PP4 (unknown origin) phosphatase domain using phosphohistone as substrate; design: species or system Homo sapiens
[17] = Inhibition of PP2A (unknown origin) phosphatase domain using phosphohistone as substrate; design: species or system Homo sapiens
[18] = biological target: T2, Serine/threonine-protein phosphatase 5 (Homo sapiens); assay: Activation of PPP5C (unknown origin) TPR domain assessed as fold change; details: filed as activator

## O=C(O)CCCCCCCCCCCC[C@H]1C=CCC1
[1]
  EC50: 134000 nM

## CN1CCN(C(=O)[C@H]2[C@@H](C(=O)O)[C@@H]3CC[C@H]2O3)CC1
[2]
  IC50: 1800 nM
[3]
  IC50: 2.4 nM
[4]
  IC50: 400 nM

## Nc1ccc(-c2nc3ccc(-c4nc5ccc(N)cc5[nH]4)cc3[nH]2)cc1
[5]
  inhibition: > 40%

## COc1ccc(-c2nc(Cc3ccc(Cl)cc3)no2)cc1OC
[6]
  fold change (FC): 3.9
[7]
  Kd: 7800 nM
[8]
  fold change (FC): 3.2

## C[C@@](O)(/C=C/[C@H]1CC=CC(=O)O1)[C@@H](C[C@@H](O)\C=C/C=C\C=C\CO)OP(=O)(O)O [FOSTRIECIN]
[9]
  IC50: 3 nM
[10]
  IC50: > 1000 nM
[11]
  IC50: 1.5 nM
[3]
  IC50: > 100000 nM
[12]
  IC50: > 1000 nM
[13]
  IC50: > 100000 nM
[14]
  IC50: 10 nM

## C[C@H]1C[C@@H]2O[C@H]1[C@@H](C(=O)O)[C@H]2C(=O)O
[10]
  IC50: 1000 nM

## Cc1ccc(C(=O)Nc2ccc(S(=O)(=O)O)c3cc(S(=O)(=O)O)cc(S(=O)(=O)O)c23)cc1NC(=O)c1cccc(NC(=O)Nc2cccc(C(=O)Nc3cc(C(=O)Nc4ccc(S(=O)(=O)O)c5cc(S(=O)(=O)O)cc(S(=O)(=O)O)c45)ccc3C)c2)c1
[15]
  fold change (FC): 4

## C=C1C(=O)N[C@H](C)C(=O)N[C@@H](CC(C)C)C(=O)N[C@@H](C(=O)O)[C@H](C)C(=O)N[C@@H](CCCNC(=N)N)C(=O)N[C@@H](/C=C/C(C)=C/[C@H](C)[C@H](Cc2ccccc2)OC)[C@H](C)C(=O)N[C@@H](C(=O)O)CCC(=O)N1C [MICROCYSTIN-LR] (R[Adda][d(γGlu)][NMeDha][dA]L[dAsp(3S-Me)]-OH; lactam N-7)
[16]
  IC50: 0.15 nM
[17]
  IC50: 0.04 nM
[3]
  IC50: 1.7 nM
[13]
  IC50: 200 nM

## O=C1OC(=O)C2C3CCC(O3)C12 (stereo not given) [DEMETHYL-CANTHARIDIN]
[10]
  IC50: 1000 nM

## CCCCO[C@H]1C[C@@H]2O[C@H]1[C@@H](C(=O)O)[C@H]2C(=O)O
[10]
  IC50: 700 nM

## CC(C)(COP(=O)(O)OP(=O)(O)OC[C@H]1O[C@@H](n2cnc3c(N)ncnc32)[C@H](O)[C@@H]1OP(=O)(O)O)[C@@H](O)C(=O)NCCC(=O)NCCS [COENZYME_A]
[1]
  EC50: 1000 nM

## CCCCC/C=C\C/C=C\C/C=C\C/C=C\CCCC(=O)O
[18]
  fold change (FC): 1.5

## C[C@@]12C(=O)OC(=O)[C@]1(C)[C@H]1CC[C@@H]2O1 [CANTHARIDIN]
[16]
  IC50: 50 nM
[11]
  IC50: 160 nM
[3]
  IC50: 1700 nM
[13]
  IC50: > 500000 nM
[14]
  IC50: 8000 nM
